In patent publication US20150374755A1, “Treated Cells and Therapeutic Uses” (NHS BLOOD & TRANSPLANT, priority 2013, published 2015):

Tested on: CD4 and CD8 T lymphocytes
Assay: Suppression of stimulated T cell proliferation (CFSE) by drug pre-incubated MSC
Type: cell-based, human
Details: MSC pre-incubated with 50 ng/ml; FIG. 6
Procedure: MSC derived from (FIG. 1A,E) bone marrow (BM) or (FIG. 1B-D) two independent umbilical cord (UC) preparations (WJ6060:FIG. 1B-C; WJ24-0: FIG. 1D) were incubated with Rapamycin overnight at concentrations from 0.4 to 50 ng/ml, or without drug (control (Ctl)). The MSC were washed, trypsinised, and plated in fresh medium without Rapamycin at 1, 5, and 25 k per well in 96 well plates. After 2-4 hours, human adult peripheral blood mononuclear cells (MNC) labelled with carboxyfluorescein succinimidyl ester (CFSE) were added, and the T lymphocytes therein were stimulated to proliferate with Phytohemagglutinin (PHA) (FIG. 1A-D) or anti-CD3, CD28 activation beads (FIG. 1E). Proliferation levels were determined after 3 days as described in the Methods section. […]
After 3-4 (PHA or bead stimulation) or 5-6 days (allostimulation) the cultures were analysed by flow cytofluorometry after staining for CD3 and CD4, and the CFSE dye-dilution profiles of CD3+CD4+ (CD4) and CD3+CD4- (CD8) lymphocytes were used to calculate proliferation indices (Lyons (2000)). To normalise the level of proliferation between experiments, the proliferation indices were calculated as: (proliferation index for condition X−proliferation index for unstimulated cells)/(proliferation index for PHA or bead stimulated control cells−proliferation index for unstimulated cells). […]

SMILES: CCC(=O)N1CCN(c2ccc(-n3c(=O)ccc4cnc5ccc(-c6cnc7ccccc7c6)cc5c43)cc2C(F)(F)F)CC1 [Torin 1]
- super-suppression by pre-incubated MSC: no significant super-suppression
